Source: patent US20250034216A1, “STEREOSELECTIVE COVALENT LIGANDS FOR ONCOGENIC AND IMMUNOLOGICAL PROTEINS” (The Scripps Research Institute, priority 2021, published 2025)

Tests used:
TRPM4_C758 = molecular target: T1, TRPM4_C758 (Homo sapiens, UniProt Q8TD43); experiment: IA-DTB cysteine engagement; type: binding; conditions: 22Rv1 cells, 20 μM probe, 1 h, relative to DMSO
T1 construct: endogenous in cells; host or cells: 22Rv1
Procedure, shortened: (§1)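 Read-out is TMT-based cysteine engagement, expressed as each reporter ion intensity divided by the average of the DMSO channels. Before that, probe-treated cell lysates were capped with IA-DTB, digested, enriched on streptavidin and TMT-tagged. PSMs with DMSO summed intensity <10,000 or DMSO CV >0.5 were excluded.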

WAPL_C1133 = molecular target: T2, WAPL_C1133 (Homo sapiens, UniProt Q7Z5K2); experiment: IA-DTB cysteine engagement; type: binding; conditions: 22Rv1 cells, 20 μM probe, 1 h, relative to DMSO
T2 construct: endogenous in cells; host or cells: 22Rv1
T2 sequence (Q7Z5K2 1-1190): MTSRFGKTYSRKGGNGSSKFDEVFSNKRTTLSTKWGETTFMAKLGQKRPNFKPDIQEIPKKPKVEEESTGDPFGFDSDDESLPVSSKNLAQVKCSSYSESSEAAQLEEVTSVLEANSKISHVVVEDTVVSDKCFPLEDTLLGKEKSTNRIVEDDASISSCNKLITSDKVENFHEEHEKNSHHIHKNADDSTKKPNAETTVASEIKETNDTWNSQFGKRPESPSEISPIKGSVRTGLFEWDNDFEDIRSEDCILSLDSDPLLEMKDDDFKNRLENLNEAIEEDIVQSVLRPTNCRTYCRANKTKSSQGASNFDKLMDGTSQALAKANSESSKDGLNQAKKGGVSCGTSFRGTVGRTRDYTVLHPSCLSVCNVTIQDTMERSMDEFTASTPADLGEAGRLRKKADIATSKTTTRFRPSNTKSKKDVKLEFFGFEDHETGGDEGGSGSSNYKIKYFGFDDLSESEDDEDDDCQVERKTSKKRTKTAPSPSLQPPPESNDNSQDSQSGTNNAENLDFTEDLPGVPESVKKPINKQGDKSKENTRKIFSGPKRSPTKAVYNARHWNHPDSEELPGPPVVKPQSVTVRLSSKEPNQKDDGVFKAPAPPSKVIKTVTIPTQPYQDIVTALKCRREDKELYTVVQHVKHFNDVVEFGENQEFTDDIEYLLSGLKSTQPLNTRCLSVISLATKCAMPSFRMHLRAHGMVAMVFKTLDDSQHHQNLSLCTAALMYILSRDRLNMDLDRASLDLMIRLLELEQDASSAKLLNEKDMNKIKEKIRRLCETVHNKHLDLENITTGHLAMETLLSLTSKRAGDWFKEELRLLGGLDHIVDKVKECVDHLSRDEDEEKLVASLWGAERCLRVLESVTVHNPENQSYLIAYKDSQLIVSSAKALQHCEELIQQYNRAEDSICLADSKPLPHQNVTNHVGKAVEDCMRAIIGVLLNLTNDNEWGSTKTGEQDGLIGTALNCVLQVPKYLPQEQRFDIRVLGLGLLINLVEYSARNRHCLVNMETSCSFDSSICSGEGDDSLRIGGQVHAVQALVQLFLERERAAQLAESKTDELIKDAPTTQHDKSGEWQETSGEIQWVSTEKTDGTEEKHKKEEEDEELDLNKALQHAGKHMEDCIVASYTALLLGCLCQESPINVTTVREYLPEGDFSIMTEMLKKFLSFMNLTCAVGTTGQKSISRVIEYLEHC
Procedure, shortened: as §1

T1 sequence (Q8TD43 whole entry): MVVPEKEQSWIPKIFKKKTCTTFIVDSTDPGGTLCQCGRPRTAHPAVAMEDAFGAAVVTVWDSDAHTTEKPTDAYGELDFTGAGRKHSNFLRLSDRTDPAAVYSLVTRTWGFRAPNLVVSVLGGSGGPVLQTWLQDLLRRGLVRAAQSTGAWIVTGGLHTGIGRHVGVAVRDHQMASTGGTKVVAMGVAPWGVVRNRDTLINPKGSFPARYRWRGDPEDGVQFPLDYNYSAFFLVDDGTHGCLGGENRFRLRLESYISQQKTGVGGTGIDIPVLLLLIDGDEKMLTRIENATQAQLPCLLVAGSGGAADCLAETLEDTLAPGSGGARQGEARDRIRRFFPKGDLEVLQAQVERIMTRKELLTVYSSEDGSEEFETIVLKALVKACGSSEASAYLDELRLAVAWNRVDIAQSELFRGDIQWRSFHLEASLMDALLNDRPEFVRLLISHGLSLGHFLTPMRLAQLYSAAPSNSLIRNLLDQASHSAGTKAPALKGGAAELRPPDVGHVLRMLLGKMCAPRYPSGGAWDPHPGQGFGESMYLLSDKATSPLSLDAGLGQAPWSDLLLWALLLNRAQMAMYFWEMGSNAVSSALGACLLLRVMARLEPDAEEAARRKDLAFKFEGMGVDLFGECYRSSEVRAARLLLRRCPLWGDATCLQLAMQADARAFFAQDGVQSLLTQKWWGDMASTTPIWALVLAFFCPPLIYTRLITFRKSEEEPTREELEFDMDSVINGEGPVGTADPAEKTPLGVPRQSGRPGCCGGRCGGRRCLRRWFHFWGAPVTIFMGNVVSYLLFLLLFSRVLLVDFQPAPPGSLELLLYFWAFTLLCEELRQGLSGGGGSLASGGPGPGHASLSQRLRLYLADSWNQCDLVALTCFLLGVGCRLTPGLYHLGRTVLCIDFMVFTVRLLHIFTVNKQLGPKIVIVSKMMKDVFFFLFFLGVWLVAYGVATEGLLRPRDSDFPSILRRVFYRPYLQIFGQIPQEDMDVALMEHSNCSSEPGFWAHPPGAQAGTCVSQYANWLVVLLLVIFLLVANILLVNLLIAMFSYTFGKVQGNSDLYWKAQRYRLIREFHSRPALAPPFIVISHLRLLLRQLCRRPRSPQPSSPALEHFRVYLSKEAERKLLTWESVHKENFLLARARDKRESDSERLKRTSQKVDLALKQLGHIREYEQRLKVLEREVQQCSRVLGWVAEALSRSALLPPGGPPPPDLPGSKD

Structure (SMILES) | % engagement TRPM4_C758 (TRPM4_C758) | % engagement WAPL_C1133 (WAPL_C1133)
C=CC(=O)N1C[C@H](c2ccc(Br)cc2)[C@H]1C(=O)Nc1cccc2cccnc12 [MY-3A, (2S,3S)-1-acryloyl-3-(4-bromophenyl)-N-(quinolin-8-yl)azetidine-2-carboxamide] | 29.5% | 78.5%
C=CC(=O)N1C[C@@H](c2ccc(Br)cc2)[C@H]1C(=O)Nc1cccc2cccnc12 [MY-1A, (2S,3R)-1-acryloyl-3-(4-bromophenyl)-N-(quinolin-8-yl)azetidine-2-carboxamide] | 40.5% | 18%
C=CC(=O)N1C[C@H](c2ccc(Br)cc2)[C@@H]1C(=O)Nc1cccc2cccnc12 [MY-1B, (2R,3S)-1-acryloyl-3-(4-bromophenyl)-N-(quinolin-8-yl)azetidine-2-carboxamide] | 54.5% | 34%
C=CC(=O)N1C[C@H](c2ccc(Br)cc2)[C@H]1C(=O)Nc1cccc2cccnc12 [MY-3B, (2S,3S)-1-acryloyl-3-(4-bromophenyl)-N-(quinolin-8-yl)azetidine-2-carboxamide] | 73.5% | 46%
